{"source": "patent US20230151065A1", "about": "“MULTI-DISULFIDE-BOND LONG-CHAIN PEPTIDE WITH NEURO[…], PHARMACEUTICAL COMPOSITION AND APPLICATION” (priority 2018, published 2023)", "key": {"[1]": {"tested_on": "primary cultured hippocampal neurons", "experiment": "Synapse formation in hippocampal neurons (SYN/PSD95 staining, PSD95 Western blot)", "assay_type": "cell-based, rat", "conditions": "treatment with ABPPk2 for 8 d", "protocol": "(1) Primary culture of fetal rat hippocampal neurons: after a rat pregnant for 17 days was anesthetized, a fetal rat was taken out under sterile conditions; the brain of the fetal rat was taken out on ice; the hippocampus was carefully taken out under a dissecting microscope; and the blood vessel membranes were removed. 0.125% trypsin/EDTA was digested at 37° C. for 10 min, and the digestion was stopped by adding the DMEM complete medium containing 10% FBS. Cell debris were removed through centrifugal at 1000 rpm for 5 min; the DMEM complete medium was added to resuspend the cells; the cells were gently blown until a single cell suspension was formed; and the cells were inoculated at an appropriate density on a culture plate (dish) pre-coated with polylysine (PLL) and cultured at 37° C., 5% CO2 incubator. […]\n(7) Promotion effect of ABPPk2 on synapse formation in primary cultured hippocampal neurons. […] The field of view was randomly selected and photographed under the laser confocal microscope, and the number of synaptic cristulas on every 100 μm neurites was counted. The effect of ABPPk2 on the expression of PSD95 was analyzed by Western blot. The steps were as follows: the total protein was extracted and the total protein concentration was determined by Bradford method. […]"}, "[2]": {"tested_on": "primary cultured SD fetal rat cortical neurons after OGD damage", "experiment": "OGD damage of cortical neurons, Hoechst 33258 staining of apoptotic bodies", "assay_type": "cell-based", "conditions": "OGD 2 h, 24 h reoxygenation; ABPPk2 8, 40, 200 ng/ml, dose-dependent; BDNF 10 ng/ml", "protocol": "The suspension was filtered with a 400-mesh screen, centrifuged at 1000 rpm for 5 min, and blown to form the single cell suspension. DMEM high glucose complete medium (containing 10% fetal bovine serum) was inoculated in a culture dish or culture plate pre-coated with polylysine (PLL) to culture in 5% CO2 incubator with saturated humidity at 37° C. After the cells were cultured for 4 h to adhere to the wall, the cells were cultured with neuron culture medium (neurobasal+2% B27) for 3 d to observe the growth of neurons. The culture medium containing cytarabine (the final concentration of cytarabine was 2.5 μg/ml) was substituted with half quantity to culture for 3d to inhibit the growth of glial cells and miscellaneous cells to obtain purely cultured primary cortical nerve cells. The purity of the cortical neurons was identified by immunocytochemical staining as more than 90%.\nAfter the cortical neurons were cultured to the 7th day, the original culture medium was sucked out, and the cells were rinsed twice with sugar-free DMEM basal medium, for 5 min each time. Each OGD damage group was added with DMEM sugar-free culture medium, placed in a Billups-Rothenberg anaerobic culture chamber, filled with 95% N2/5% CO2 to balance for 15 min, and sealed for 2 h to build an OGD model. […]"}, "[3]": {"tested_on": "primary cultured SD fetal rat cortical neurons after OGD damage", "experiment": "OGD damage of cortical neurons, Western blot of apoptosis-related proteins", "assay_type": "cell-based"}, "[4]": {"conditions": "after OGD damage and treatment with ABPPk2"}, "[5]": {"conditions": "total protein, ABPPk2 medium-dose (40 ng/ml) and high-dose (200 ng/ml) groups vs OGD damage group"}}, "note": "Where no end group is shown, it is not given here."}
{"substance": "Cys-Leu-Glu-Ser-Gly-Thr-Ser-Cys-Ile-Pro-Gly-Ala-Gln-His-Asn-Cys-Cys-Ser-Gly-Val-Cys-Val-Pro-Ile-Val-Thr-Ile-Phe-Tyr-Gly-Val-Cys-Tyr (CLESGTSCIPGAQHNCCSGVCVPIVTIFYGVCY; disulfide (positions not given here); not fully specified (bridges); also: three disulfide bonds, pairing not given here) [ABPPk2, 33 amino acid polypeptide isolated from the extract of Achyranthes bidentata Blume, three pairs of disulfide bonds]", "values": [{"measurement": "number of the formed synapses", "setting": "[1]", "result": "the number of the formed synapses can be significantly increased"}, {"measurement": "expression of PSD95 protein", "setting": "[1]; Western blot", "result": "up-regulated"}, {"measurement": "apoptotic bodies of cortical neuron nuclei", "setting": "[2]", "result": "the apoptotic bodies of the cortical neuron nuclei were reduced"}, {"measurement": "expression of AIF in mitochondria", "setting": "[3]; [4]", "result": "significantly up-regulated"}, {"measurement": "expression of AIF in the nucleus", "setting": "[3]; [4]", "result": "significantly down-regulated"}, {"measurement": "expression of Cyt C in cytoplasma", "setting": "[3]; [4]", "result": "significantly down-regulated"}, {"measurement": "expression of Cyt C in mitochondria", "setting": "[3]; [4]", "result": "significantly up-regulated"}, {"measurement": "Bcl-2 expression", "setting": "[3]; total protein, ABPPk2 high-dose group (200 ng/ml) vs OGD damage group", "result": "significantly up-regulated"}, {"measurement": "Bax expression", "setting": "[3]; [5]", "result": "significantly down-regulated"}, {"measurement": "Cleaved caspase-3 expression", "setting": "[3]; [5]", "result": "significantly down-regulated"}]}
